Assay results reported in patent US5049654A, “Calcitonin gene related peptide derivatives” (Toyo Jozo Kabushiki Kaisha, priority 1986, dated 1991).
Positions of bridges follow the written chain, without caps; N, C: chain ends. Non-standard residues stand in square brackets, D forms with d. Residues, ends and D or L forms follow the SMILES beside them. Asu = N[C@@H](CCCCCC(=O)O)C(=O)O; Mpa = O=C(O)CCS

How the values were obtained:
Wistar rats [1] = assay: Serum calcium reducing activity, i.v. into the tail vein of Wistar rats, atomic adsorption spectrophotometry; type: in vivo; settings: rat; for reduction of serum calcium concentration as compared with control group: vs dissolving medium group
Experimental: (§1) Desalanyl-deamino-c-CGRP, desalanyl-[Asu^2,7 -c-CGRP and desalanyl-[Asp^3, Asu^2,7 ]-c-CGRP (each 80 μg), and c-CGRP (Japan. Patent Unexam. Publ. No. 61-273581) and known h-CGRP (each 80 μg for control group) dissolved in citrate buffer, pH 6.5, containing 0.1% bovine serum albumin (hereinafter designated dissolving medium) (1 ml) were administered intravenously into the tail vein of Wistar rats, body weight 80-90 g, 5-6 rats in one group, at 20 or 80 μg/kg. After 30 and 60 mins. of administration, blood samples were collected from the abdominal descending aorta. The serum calcium concentration was measured by atomic adsorption spectrophotometry. Serum phosphate was measured by a method according to Goldenberg et al. [Clin. Chem., 12: 872-882 (1966)].

Wistar rats [2] = assay: Serum phosphate reducing activity, i.v. into the tail vein of Wistar rats, method of Goldenberg et al.; type: in vivo; settings: rat; for reduction of serum phosphate concentration as compared with control group: vs dissolving medium group
Experimental: as §1

Physical properties: pI = type: physicochemical
[3] = test peptide 80 μg/kg vs c-CGRP at equivalent dose
[4] = test peptide 80 μg/kg vs h-CGRP 80 μg/kg
[5] = test peptide 20 μg/kg vs c-CGRP 20 μg/kg
[6] = test peptide 20 μg/kg vs h-CGRP 80 μg/kg

CC(C)C[C@H](NC(=O)[C@H](CCCNC(=N)N)NC(=O)[C@H](Cc1c[nH]cn1)NC(=O)[C@@H](NC(=O)[C@@H](NC(=O)[C@@H]1CCCCCC(=O)N[C@@H](CC(N)=O)C(=O)N[C@@H]([C@@H](C)O)C(=O)N[C@@H](C)C(=O)N[C@@H]([C@@H](C)O)C(=O)N1)C(C)C)[C@@H](C)O)C(=O)N[C@@H](C)C(=O)N[C@@H](CC(=O)O)C(=O)N[C@@H](Cc1ccccc1)C(=O)N[C@@H](CC(C)C)C(=O)N[C@@H](CO)C(=O)N[C@@H](CCCNC(=N)N)C(=O)N[C@@H](CO)C(=O)NCC(=O)NCC(=O)N[C@H](C(=O)NCC(=O)N[C@@H](CCCCN)C(=O)N[C@@H](CC(N)=O)C(=O)N[C@@H](CC(N)=O)C(=O)N[C@@H](Cc1ccccc1)C(=O)N[C@H](C(=O)N1CCC[C@H]1C(=O)N[C@H](C(=O)N[C@@H](CC(N)=O)C(=O)N[C@H](C(=O)NCC(=O)N[C@@H](CO)C(=O)N[C@@H](CCCCN)C(=O)N[C@@H](C)C(=O)N[C@@H](Cc1ccccc1)C(N)=O)C(C)C)[C@@H](C)O)C(C)C)C(C)C [desalanyl-[Asu^2,7]-c-CGRP] (NTAT[Asu]VTHRLADFLSRSGGVGKNNFVPTNVGSKAF-NH2; lactam N-5)
duration of serum calcium reducing activity (Wistar rats [1]; 80 μg/kg i.v.): more than 2 hours
reduction of serum calcium concentration as compared with control group (Wistar rats [1]; 80 μg/kg i.v., FIGS. 1 and 3): more than 30%
serum calcium reducing activity compared with c-CGRP (Wistar rats [1]; [3]): significantly strong as compared with c-CGRP
serum calcium reducing activity compared with h-CGRP (Wistar rats [1]; [4]): stronger than that of h-CGRP
duration of serum phosphate reducing activity (Wistar rats [2]; 80 μg/kg i.v.): more than 2 hours
reduction of serum phosphate concentration as compared with control group (Wistar rats [2]; 80 μg/kg i.v., FIGS. 2 and 4): more than 30%
serum phosphate reducing activity compared with c-CGRP (Wistar rats [2]; [3]): significantly strong as compared with c-CGRP
serum phosphate reducing activity compared with h-CGRP (Wistar rats [2]; [4]): stronger than that of h-CGRP
pI (Physical properties: pI): more than 10.25

CC(C)C[C@H](NC(=O)[C@H](CCCNC(=N)N)NC(=O)[C@H](Cc1c[nH]cn1)NC(=O)[C@@H](NC(=O)[C@@H](NC(=O)[C@@H]1CSSCCC(=O)N[C@@H](CC(N)=O)C(=O)N[C@@H]([C@@H](C)O)C(=O)N[C@@H](C)C(=O)N[C@@H]([C@@H](C)O)C(=O)N1)C(C)C)[C@@H](C)O)C(=O)N[C@@H](C)C(=O)N[C@@H](CC(=O)O)C(=O)N[C@@H](Cc1ccccc1)C(=O)N[C@@H](CC(C)C)C(=O)N[C@@H](CO)C(=O)N[C@@H](CCCNC(=N)N)C(=O)N[C@@H](CO)C(=O)NCC(=O)NCC(=O)N[C@H](C(=O)NCC(=O)N[C@@H](CCCCN)C(=O)N[C@@H](CC(N)=O)C(=O)N[C@@H](CC(N)=O)C(=O)N[C@@H](Cc1ccccc1)C(=O)N[C@H](C(=O)N1CCC[C@H]1C(=O)N[C@H](C(=O)N[C@@H](CC(N)=O)C(=O)N[C@H](C(=O)NCC(=O)N[C@@H](CO)C(=O)N[C@@H](CCCCN)C(=O)N[C@@H](C)C(=O)N[C@@H](Cc1ccccc1)C(N)=O)C(C)C)[C@@H](C)O)C(C)C)C(C)C [desalanyl-deamino-c-CGRP] ([Mpa]NTATCVTHRLADFLSRSGGVGKNNFVPTNVGSKAF-NH2; disulfide 1-6)
duration of serum calcium reducing activity (Wistar rats [1]; 20 μg/kg i.v.): ≥ 2 h
reduction of serum calcium concentration as compared with control group (Wistar rats [1]; 20 μg/kg i.v., FIG. 1): more than 30%
duration of serum calcium reducing activity (Wistar rats [1]; 80 μg/kg i.v.): ≥ 2 h
reduction of serum calcium concentration as compared with control group (Wistar rats [1]; 80 μg/kg i.v., FIGS. 1 and 3): more than 30%
serum calcium reducing activity compared with c-CGRP (Wistar rats [1]; [5]): significantly strong as compared with c-CGRP
serum calcium reducing activity compared with h-CGRP (Wistar rats [1]; [6]): stronger than those of h-CGRP administered in quadruple the amounts
serum calcium reducing activity compared with c-CGRP (Wistar rats [1]; [3]): stronger
serum calcium reducing activity compared with h-CGRP (Wistar rats [1]; [4]): stronger than those of h-CGRP
duration of serum phosphate reducing activity (Wistar rats [2]; 20 μg/kg i.v.): ≥ 2 h
reduction of serum phosphate concentration as compared with control group (Wistar rats [2]; 20 μg/kg i.v., FIG. 2): more than 30%
duration of serum phosphate reducing activity (Wistar rats [2]; 80 μg/kg i.v.): ≥ 2 h
reduction of serum phosphate concentration as compared with control group (Wistar rats [2]; 80 μg/kg i.v., FIGS. 2 and 4): more than 30%
serum phosphate reducing activity compared with c-CGRP (Wistar rats [2]; [5]): significantly strong as compared with c-CGRP
serum phosphate reducing activity compared with h-CGRP (Wistar rats [2]; [6]): stronger than those of h-CGRP administered in quadruple the amounts
serum phosphate reducing activity compared with c-CGRP (Wistar rats [2]; [3]): stronger
serum phosphate reducing activity compared with h-CGRP (Wistar rats [2]; [4]): stronger than those of h-CGRP
pI (Physical properties: pI): more than 10.25

CC(C)C[C@H](NC(=O)[C@H](CCCNC(=N)N)NC(=O)[C@H](Cc1c[nH]cn1)NC(=O)[C@@H](NC(=O)[C@@H](NC(=O)[C@@H]1CCCCCC(=O)N[C@@H](CC(=O)O)C(=O)N[C@@H]([C@@H](C)O)C(=O)N[C@@H](C)C(=O)N[C@@H]([C@@H](C)O)C(=O)N1)C(C)C)[C@@H](C)O)C(=O)N[C@@H](C)C(=O)N[C@@H](CC(=O)O)C(=O)N[C@@H](Cc1ccccc1)C(=O)N[C@@H](CC(C)C)C(=O)N[C@@H](CO)C(=O)N[C@@H](CCCNC(=N)N)C(=O)N[C@@H](CO)C(=O)NCC(=O)NCC(=O)N[C@H](C(=O)NCC(=O)N[C@@H](CCCCN)C(=O)N[C@@H](CC(N)=O)C(=O)N[C@@H](CC(N)=O)C(=O)N[C@@H](Cc1ccccc1)C(=O)N[C@H](C(=O)N1CCC[C@H]1C(=O)N[C@H](C(=O)N[C@@H](CC(N)=O)C(=O)N[C@H](C(=O)NCC(=O)N[C@@H](CO)C(=O)N[C@@H](CCCCN)C(=O)N[C@@H](C)C(=O)N[C@@H](Cc1ccccc1)C(N)=O)C(C)C)[C@@H](C)O)C(C)C)C(C)C [desalanyl-[Asp^3,Asu^2,7]-c-CGRP] (DTAT[Asu]VTHRLADFLSRSGGVGKNNFVPTNVGSKAF-NH2; lactam N-5)
duration of serum calcium reducing activity (Wistar rats [1]; 80 μg/kg i.v.): more than 2 hours
reduction of serum calcium concentration as compared with control group (Wistar rats [1]; 80 μg/kg i.v., FIGS. 1 and 3): more than 30%
serum calcium reducing activity compared with c-CGRP (Wistar rats [1]; [3]): significantly strong as compared with c-CGRP
serum calcium reducing activity compared with h-CGRP (Wistar rats [1]; [4]): stronger than that of h-CGRP
duration of serum phosphate reducing activity (Wistar rats [2]; 80 μg/kg i.v.): more than 2 hours
reduction of serum phosphate concentration as compared with control group (Wistar rats [2]; 80 μg/kg i.v., FIGS. 2 and 4): more than 30%
serum phosphate reducing activity compared with c-CGRP (Wistar rats [2]; [3]): significantly strong as compared with c-CGRP
serum phosphate reducing activity compared with h-CGRP (Wistar rats [2]; [4]): stronger than that of h-CGRP
pI (Physical properties: pI): more than 10.25
